US6225478A, “Iridoid derivatives and neovascularization inhibitors containing the same as active ingredient” (Tsumura & Co., priority 1999, dated 2001)
Values after ≈ are worked out from the molar mass of the structure shown. Like-named read-outs stand apart in the source and are kept apart here.

How the values were obtained:
Type in all cases: cell-based
[1] = system: human umbilical-vein endothelial cells (HUVEC); assay: Tube Formation Assay (TFA) Test, HUVEC in collagen gel; conditions: 20 hours, 40% or less judged remarkable; for inhibition at 1 µg/mL / inhibition at 10 µg/mL: Homo sapiens, HUVEC, read-out: TFA (inhibition rate, %)
Summary of the method: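 HUVEC (7th subculture, 1×10^5 cells/ml) attached to collagen gel for 2 h at 37 °C, given sample and overlaid with collagen, then cultured 20 h at 37 °C, 5% CO2 in M-199 with 20% FCS, 30 ng/ml b-FGF and 0.1 μM PMA. Tube length measured by image analysis; % inhibition relative to positive and negative controls.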

[2] = system: human umbilical-vein endothelial cells (HUVEC); assay: Cell Migration Assay (CMA) Test, HUVEC (% relative to control); conditions: 24 hours, 60% or less = remarkable inhibition; for activity at 1 µg/mL / activity at 10 µg/mL: Homo sapiens, HUVEC, read-out: CMA (% relative to control)
Method: (§1) Furthermore, the sample liquids of compounds used in the CPA and CMA tests were prepared in the manner described below. Firstly, after weighing out each compound, a calculated amount of DMSO was added. After dissolving the compound in the DMSO, phosphate buffered physiological saline (PBS (-)) was added to bring the sample concentration to 1 mg/ml in PBS (-). The amount of DMSO used to dissolve the compounds was adjusted in advance to that the concentration of DMSO at that time was 5%. The resulting liquids were diluted 10-fold with 5% DMSO-PBS (-) solution to prepare sample solutions having a concentration of 0.1 mg/ml. In the TFA test, 320 μl of the prepared 1 mg/ml sample solutions were removed followed by addition of 680 μl of PBS (-) to prepare samples having a concentration of […]. Moreover, 100 μl of this solution was removed followed by addition of 900 μl of PBS (-) to dilute 10-fold and prepare samples having a concentration of 1 μg/ml. P [Cell Proliferation Assay (CPA) Test]
After disseminating the 7th subculture of HUVEC obtained from the first generation in the same manner as above at 4 ml/well (3.0×10^5 cells/well) in a collagen-coated 6-well plate (NUNC), the cells were cultured for 48 hours at 37° C. in the presence of 5% CO2. The cells reached nearly a completely confluent state as a result of this culturing.
A double-edged, disposable razor blade was divided into four sections, of which one of those sections was pinched between a pair of forceps. Using this piece of razor blade, the cell surface in the above confluent state was scraped off. Two areas of the cell surface were scraped off in each well.
After washing the surface of the wells from which the cells had been scraped off with medium, 4.0 ml of fresh M199 (2+) medium were added followed by addition of 40 μl or 4 μl of sample solution (1 mg/ml). The cells were cultured for 24 hours at 37° C. in the presence of 5% CO2. After discarding the culture liquid, the cells were fixed for 30 minutes with methanol. Next, after staining the cells for 4 hours with Giemsa stain, the plates were washed with tap water and air dried.
Measurement of cell migration was performed by microscopically counting the number of cells that had newly migrated within the range of a 1 mm×1 mm block. […] The total number of cells counted in blocks 1 through 5 were then totaled to determine the overall total number of cells. Four fields were counted for each well.
Evaluation was performed determining the cell migration (%) according to the following formula.
Cell migration rate=number of migrating cells to which sample was added×100/number of migrating of control (+)
Control (+) indicates the number of migrating cells in the control well containing M199 (2+).

[3] = system: human umbilical-vein endothelial cells (HUVEC); assay: Cell Proliferation Assay (CPA) Test, HUVEC, MTT; conditions: M199 (2+) medium; for IC50: Homo sapiens, read-out: CPA (IC50 μg/ml)
Method: as §1
100 μl of the 7th subculture obtained from first generation human umbilical-vein endothelial cells (HUVEC) were disseminated in the wells (N=3) of a 96-well plate (Iwaki, Cat. #4860-010) at a cell concentration of 5×10^4 cells/ml. M-199 medium containing +20% FCS, 10 ng/ml of b-FGF and 10 ng/ml of EGF (abbreviated as "M199 (2+)") was used for the medium.
After culturing for 24 hours at 37° C. in the presence of 5% CO2 under the above conditions, 20 μl/well of MTT solution (solution containing 5 mg/ml of PBS (-)) were added to the control well followed by accurately culturing for 4 hours at 37° C. in the presence of 5% CO2. Following completion of culturing, 100 μl/well of a stop solution (0.001 N aqueous HCl solution containing 10% SDS) were added. On the other hand, 10 μl/well of sample solutions at concentrations of 1 mg/ml and 0.1 mg/ml were added to the other wells.
After culturing for 24 hours at 37° C. in the presence of 5% CO2, the medium was replaced and 100 μl/well of M199 (2+) were added. The samples were also replaced in each well at this time.
Moreover, after additionally culturing for 48 hours at 37° C. in the presence of 5% CO2, 20 μl/well of MTT solution were added to the wells containing sample and the control well followed by accurately culturing for 4 hours at 37° C. and adding 100 μl/well of stop solution.

Structure (SMILES)	inhibition at 1 µg/mL ([1]; 20 h, 1 μg/ml) [%]	inhibition at 10 µg/mL ([1]; 20 h, 10 μg/ml) [%]	activity at 1 µg/mL ([2]; 1 μg/ml) [%]	activity at 10 µg/mL ([2]; 10 μg/ml) [%]	IC50 [3] [µg/mL]	inhibition at 1 µg/mL ([1]; 1 μg/ml) [%]	inhibition at 10 µg/mL ([1]; 10 μg/ml) [%]	TFA (inhibition rate, %) ([1]; 1 μg/ml) [%]	TFA (inhibition rate, %) ([1]; 10 μg/ml) [%]	CMA (% relative to control) ([2]; 1 μg/ml) [%]	CMA (% relative to control) ([2]; 10 μg/ml) [%]	CPA (IC50 μg/ml) [3] [µg/mL]
CNC(=O)O[C@@H]1OC=C(C(=O)OC)[C@H]2C[C@@H]3O[C@]3(CCl)C12 (stereo in doubt) [compound 51, (1S,4aS,6S,7R,7aR)-6,7-epoxy-7-(chloromethyl)-1-(methylcarbamoyloxy)-1,4a,5,6,7,7a-hexahydrocyclopenta [c]pyrane-4-carboxylic acid methylester]	19.1	-1.4	102	101	> 100	–	–	–	–	–	–	–
O=c1[nH]cc(F)c(=O)[nH]1 [5-FU, 5-fluorouracil, reference compound]	–	–	102	92.9	3.5 (≈ 26.9 µM)	42.4	52.3	–	–	–	–	–
CNC(=O)OC[C@@H]1[C@H](C)CC[C@@H]1C1(COC(=O)NC)CO1 (stereo partly drawn) [Compound 58, 2-[(1S,2R,3R)-2-(methylcarbamoyloxy)methyl-3-methylcyclopento-1-yl]-2,3-epoxy-propane-1-methylcarbamate]	–	–	–	–	–	–	–	20.6	22.3	121.6	97.0	> 100.0
CNC(=O)OC[C@@H]1[C@@H](C)CC[C@@H]1C1(COC(=O)NC)CO1 (stereo partly drawn) [Compound 59, 2-[(1S,2R,3S)-2-(methylcarbamoyloxy)methyl-3-methylcyclopento-1-yl]-2,3-epoxy-propane-1-methylcarbamate]	–	–	–	–	–	–	–	5.9	-4.5	99.3	92.5	> 100.0
CNC(=O)OC[C@]12O[C@H]1C[C@@H]1C(C(=O)OC)=CO[C@@H](O)[C@@H]12 [Compound 60, (4aS,6S,7R,7aR)-6,7-epoxy-1-hydroxy-7-methylcarbamoyloxymethyl-1,4a,5,6,7a-pentahydro [c] pyrane-4-carboxylic acid methylester]	32.7	41.5	87.1	96.3	> 100	–	–	–	–	–	–	–
CN(Cc1cnc2nc(N)nc(N)c2n1)c1ccc(C(=O)N[C@@H](CCC(=O)O)C(=O)O)cc1 [MTX, Methotrexate, reference compound]	–	–	102	103	0.04 (≈ 0.088 µM)	37.5	42.6	–	–	–	–	–
CNC(=O)O[C@@H]1OC=C(C(=O)O)[C@H]2C[C@@H]3O[C@]3(C)[C@H]12 [compound 1, (1S,4aS,6S,7R,7aR)-6,7-epoxy-1,4a,5,6,7,7a-hexahydro-7-methyl-1-(methylcarbamoyloxy) cyclopenta [c]-pyrane-4-carboxylic acid]	49.8	37.8	98.5	93.5	> 100	–	–	–	–	–	–	–
CNC(=O)O[C@@H]1OC=C(C(=O)OC)[C@H]2C[C@@H]3O[C@]3(C)[C@H]12 [compound 3, (1S,4aS,6S,7R,7aR)-6,7-epoxy-1,4a,5,6,7,7a-hexahydro-1-methylcarbamoyloxy-7-methylcyclopenta [c] pyrane-4-carboxylic acid methylester]	33	33.5	68.5	57.3	> 100	–	–	–	–	–	–	–
CCOC(=O)C1=CO[C@@H](OC(=O)NC)[C@@H]2[C@@H]1C[C@@H]1O[C@]21C [compound 4, (1S,4aS,6S,7R,7aR)-6,7-epoxy-1,4a,5,6,7,7a-hexahydro-7-methyl-1-(methylcarbamoyloxy) cyclopenta [c]-pyrane-4-carboxylic acid ethylester]	40.5	5.6	70.8	53	> 100	–	–	–	–	–	–	–
CCCCCCOC(=O)C1=CO[C@@H](OC(=O)NC)[C@@H]2[C@@H]1C[C@@H]1O[C@]21C [compound 5, (1S,4aS,6S,7R,7aR)-6,7-epoxy-1,4a,5,6,7,7a-hexahydro-7-methyl-1-(methylcarbamoyloxy) cyclopenta [c]-pyrane-4-carboxylic acid n-hexylester]	20.8	34.5	98.6	82	44.9 (≈ 127 µM)	–	–	–	–	–	–	–
CNC(=O)O[C@@H]1OC=C(C(=O)OC/C=C(\C)CCC=C(C)C)[C@H]2C[C@@H]3O[C@]3(C)[C@H]12 [compound 6, (1S,4aS,6S,7R,7aR)-6,7-epoxy-1,4a,5,6,7,7a-hexahydro-7-methyl-1-(methylcarbamoyloxy) cyclopenta [c]-pyrane-4-carboxylic acid geranyl ester]	24.2	8.7	106	105	> 100	–	–	–	–	–	–	–
C=CCCCOC(=O)C1=CO[C@@H](OC(=O)NC)[C@@H]2[C@@H]1C[C@@H]1O[C@]21C [compound 7, (1S,4aS,6S,7R,7aR)-6,7-epoxy-1,4a,5,6,7,7a-hexahydro-7-methyl-1-(methylcarbamoyloxy) cyclopenta [c]-pyrane-4-carboxylic acid 4-pentenylester]	25.8	18.2	82.6	79.7	90.6 (≈ 269 µM)	–	–	–	–	–	–	–
C=CCCOC(=O)C1=CO[C@@H](OC(=O)NC)[C@@H]2[C@@H]1C[C@@H]1O[C@]21C [compound 8, (1S,4aS,6S,7R,7aR)-6,7-epoxy-1,4a,5,6,7,7a-hexahydro-7-methyl-1-(methylcarbamoyloxy) cyclopenta [c]-pyrane-4-carboxylic acid 3-butenylester]	27.3	93.2	75.4	60.5	60.5 (≈ 187 µM)	–	–	–	–	–	–	–
C=CCOC(=O)C1=CO[C@@H](OC(=O)NC)[C@@H]2[C@@H]1C[C@@H]1O[C@]21C [compound 9, (1S,4aS,6S,7R,7aR)-6,7-epoxy-1,4a,5,6,7,7a-hexahydro-7-methyl-1-(methylcarbamoyloxy) cyclopenta [c]-pyrane-4-carboxylic acid allylester]	11	16.5	111	116	> 100	–	–	–	–	–	–	–
